Tests used:
[1] = system: cutaneous and/or mucosal toxicity induced by anti-EGFR drugs; assay: administration of lycopene to patients treated with anti-EGFR drugs; type: in vivo
Description: The regression has been so significant that patients, who could not shave the beard before the treatment with lycopene, could perform normal shaving after 2 weeks from the daily administration of lycopene.

[2] = cited from earlier work
[3] = patients affected by paronychia due to anti-EGFR drugs
[4] = dosage of treatment group A (6.5 mg tablets, 3 tablets/day)

## CC(C)=CCC/C(C)=C/C=C/C(C)=C/C=C/C(C)=C/C=C/C=C(C)/C=C/C=C(C)/C=C/C=C(\C)CCC=C(C)C [lycopene]
[1]; male patients of age between 35 and 55 years treated with anti-EGFR drugs, already presenting pustular injuries
  regression of pustular injuries: significant regression
[1]; male patients who could not shave the beard before treatment, daily administration
  time from daily administration until normal shaving possible: 2 weeks
[1]; [3]
  functional ability of hand fingers: recover the lost functional ability
  nail growth and strength: recover the normal nail growth and strength
  pain condition in paronychia: improvement of the pain condition
[1]; patients affected by paronychia due to anti-EGFR drugs with functional disabling of the hand fingers
  inflammation of paronychia: resolution of the inflammation
[1]; patients treated with anti-EGFR drugs
  regression of the rosiness (diffuse erythema of the face): significant regression of the rosiness
[1]; some patients not yet affected by erythema
  onset/extension of rosiness coloration: delayed and/or decreased the extension of such coloration
[2]; chronic intake, several studies
  side effects during chronic intake: absence of relevant side effects
[2]; chronic intake
  observed safe level of intake (OSL): up to 75 mg/day
[2]; [4]
  antioxidant effects at the trial dosage: significant antioxidant effects
  side effects at the trial dosage: not to have relevant side effects

From US11318108B2, “Use of carotenoid derivatives to reduce the toxicity and increase the efficacy of anti-EGFR antitumor treatments” (ASSOCIAZIONE ONCOLOGICA MILANESE AMO LA VITA ONLUS, priority 2017, dated 2022)
